Measured values from publication PMC6624388 (British Journal of Clinical Pharmacology, 2019).
≈ marks a conversion by molar mass, not a printed value. Where “and” joins values, the source holds several entries; their conditions need not be identical. Equal values may be shown once. Read-outs that look alike come from different tables or passages of the source.

Columns and labels:
[1] = format: in vivo, human
[2] = Safety assessments in Parts 1 and 2; format: in vivo, human; conditions: both parts, healthy volunteers
[3] = Solubility in water and other physiological relevant media; format: physicochemical
tumour growth = conditions: in combination with anti‐PD‐L1, preclinical models; cited from earlier work
[4] = format: in vivo, human; remark: listed apart in the source
[5] = Stability of navoximod in human plasma; format: in vitro ADME; conditions: five freeze–thaw cycles; at least 110 days at −10°C to −30°C and −60°C to −80°C; 24 h at room temperature
UGTs = conditions: ref unpublished results; cited from earlier work
[6] = cited from earlier work
Part 2 mass balance = format: in vivo, human
[7] = Part 2, oral 200 mg/600 μCi [14C]-navoximod

O[C@H](C[C@H]1c2c(F)cccc2-c2cncn21)[C@H]1CC[C@H](O)CC1 [navoximod]
total IV clearance relative to blood flow ([1]; IV 5 mg): ~ 71 % of blood flow
CL/F (apparent oral clearance) ([1]; Part 1, healthy volunteers, oral 200 mg tablet, fasted, n = 16, geometric mean (geometric CV%)): 112 L/h and 112 (31.4) L/h
AUC(0-inf) ([1]; human, plasma, iv, 5 mg): 80.6 ng·h/mL
AUC(0-t) ([1]; human, plasma, iv, 5 mg): 79.1 ng·h/mL
Cmax ([1]; human, plasma, iv, 5 mg): 114 ng/mL
Tmax ([1]; human, plasma, iv, 5 mg): 5 min
Vd ([1]; human, plasma, iv, 5 mg): 1120 L
clearance ([1]; human, plasma, iv, 5 mg): 1030 mL/min
half-life ([1]; human, plasma, iv, 5 mg): 12.6 h
bioavailability ([1]; human, plasma, oral, 200 mg): 55.5%
AUC(0-inf) ([1]; human, plasma, po, 200 mg): 1790 ng·h/mL
AUC(0-t) ([1]; human, plasma, po, 200 mg): 1770 ng·h/mL
Cmax ([1]; human, plasma, po, 200 mg): 683 ng/mL
Vd/F ([1]; human, plasma, po, 200 mg): 1780 L
half-life ([1]; human, plasma, po, 200 mg): 11 h
tolerability ([2]; all IV (5 mg) and oral (200 mg) doses): generally well tolerated
severity of adverse events ([2]; all IV and oral doses): mild
solubility [3]: 200 mg/mL (≈ 632 mM)
effect on tumour growth (tumour growth): inhibits tumour growth compared to either treatment alone
AUC(0-t) ([4]; human, plasma, oral, 200 mg): 4.4 µM·h
Total (urine + feces) % of dose ([4]; mean of eight subjects, oral 200 mg/600 μCi [14C]-navoximod): 5.45 % of dose
Plasma % of TRA (share of total drug-derived exposure) ([4]; pooled 0–48 h plasma, n = 8, adjusted with extraction recovery, oral 200 mg/600 μCi [14C]-navoximod): 7.00%
Feces % of dose ([4]; pooled faeces, mean of eight subjects, oral 200 mg/600 μCi [14C]-navoximod): 3.79 % of dose
Urine % of dose ([4]; pooled urine, mean of eight subjects, oral 200 mg/600 μCi [14C]-navoximod): 1.66 % of dose
stability in human plasma [5]: stable
major UGTs responsible for navoximod metabolism (UGTs): UGT1A9 and 2B7
mean accumulation index ([6]; BID dosing): approximately 1.7
half‐life ([6]; clinical studies, monotherapy or with atezolizumab): approximately 12 hours
dose proportionality of exposure ([6]; dose range of 50–1000 mg): dose‐proportional increases in exposure
tolerability of single and twice daily oral doses ([6]; monotherapy, up to 1000 mg, cancer patients): well tolerated
recovery of total radioactivity in urine (Part 2 mass balance; % of administered dose, mean (± SD), oral 200 mg/600 μCi [14C]-navoximod): 80.4%
navoximod as share of plasma total radioactivity, geometric mean AUC0‐∞ ratio (Part 2 mass balance; [7]): 4.21%
navoximod as share of plasma total radioactivity, geometric mean C max ratio (Part 2 mass balance; [7]): 10.6%
geometric mean whole blood to plasma AUC0‐∞ ratio for total radioactivity (Part 2 mass balance; Part 2, total radioactivity (parent and metabolites)): 0.965
Fh (Part 2 mass balance; assuming Fg = 1): approximately 0.66
extrahepatic clearance (Part 2 mass balance; estimated): 31.2 L/h
total radioactivity recovered in excreta within the first 72 h (Part 2 mass balance; first 72 h, oral 200 mg/600 μCi [14C]-navoximod): 85.0%
Fh * Fg (Part 2 mass balance; from F and Fa): 0.66
AUC(0-inf) (Part 2 mass balance; human, plasma, po, 200 mg): 1540 ng·h/mL
AUC(0-t) (Part 2 mass balance; human, plasma, po, 200 mg): 1510 ng·h/mL
Cmax (Part 2 mass balance; human, plasma, po, 200 mg): 464 ng/mL
Vd/F (Part 2 mass balance; human, plasma, po, 200 mg): 1680 L
half-life (Part 2 mass balance; human, plasma, po, 200 mg): 9.41 h
CL renal (Part 2 mass balance; human, urine and plasma, oral, 200 mg): 20.3 mL/min
hepatic clearance (CLhep = [1 − Fh] * Qh) (Part 2 mass balance; in vivo): 29.6 L/h
fraction of metabolism (fm) (Part 2 mass balance; oral 200 mg): 0.98
hepatic first pass extraction (Part 2 mass balance; oral 200 mg): ~ 34%
fraction of the dose absorbed (Fa) (Part 2 mass balance; sum of radioactivity in urine and metabolites in faeces, as fraction): 0.841
